Values joined by “and” are separate entries in the source; they are usually repeats but may differ in a detail not shown here. Equal entries are not always repeated. Where two headings read alike, the source gives them in different places.
What was measured:
[1] = test system: active herpes labialis lesions; details: 0.0275% gel
Source text: An additional gel concentration (0.0275%) was' used on two patients for active herpes labialis lesions.

[2] = test system: aphthous stomatitis lesions (canker sores); details: for Mean percentage decay rates of lesions for each patient: standardized over 24 hour period
Method: Treatment consisted of topical application five times per day for a period of five days., with daily evaluation by the patient and clinician. Lesion decay rates (decrease in lesion size over time) of Groups C and E were grouped together and compared to Group B, the placebo Group.
Assignment of subjects within groups to the three concentrations was unknown to the investigator.
The decay rate was calculated by first computing the percentage decrease in size of the lesion over time and then standardizing the decay rate over an exact 24 hour period.

Allergic Conjunctivitis = test system: Allergic Conjunctivitis
Method: The composition of the present invention includes initial preparation of a gel base by adding 0.8% CARBOPOL 940, which is a vinyl polymer, to distilled water. This mixture was allowed to stand for several hours until the polymer was wetted and a gel was formed. This mixture then was blended by means of a ordinary high speed mixer, such as a Lightning Labmaster II until a homogenous mixture is formed. At this point, a neutralizing and emulsifying agent such as an amino alcohol was added, forming an emulsion. […] This composition then was applied topically to various types of lesions, as subsequently described. […] Propylparaben or methylparaben may be used as a preservative. For “unidose” dispensers containing only two to three drops, no preservatives are used, as it is known that preservatives in ophthalmic solutions frequently cause undesirable side effects. The term semi-synthetic water soluble polymer as used herein includes hydroxy methylcellulose or carboxy methylcellulose. Carbopol is widely available in different viscosities.
Treatment consisted of topical ophthalmic application of both ophthalmic solution concentrations to their randomly assigned patients 2 times a day for 5 days. […] Each patient was clinically evaluated at 48 hours and 120 hours following the initiation of treatment for 2 parameters of tissue damage associated with Allergic Conjunctivitis. In addition, each patient was asked to evaluate subjectively 3 symptoms associated with Allergic Conjunctivitis 48 hours and 120 hours after treatment initiation. The percent reduction from the initial presentation of each of the parameters of tissue damage and the initial presentation for each additional symptom evaluated was calculated from 48 and 120 hour post treatment initiation data.
Patients were randomly assigned to one of two active levels being evaluated.
Clinical evaluation was performed at 48 hours and 120 hours post treatment initiation. Each patient was asked to subjectively evaluate 3 additional symptoms associated with Allergic Conjunctivitis by rating each symptom on a scale of 0 to 5 with 0 representing no evidence of symptom and 5 representing the greatest evidence of the symptom ever by the patient. clinical evaluation of tissue damage parameters was also done using the same scale of 0 to 5.
Patient compliance with the treatment regimen and the use of other medications was also evaluated.

[3] = test system: herpes zoster (shingles) lesions; details: for Burning score / Local pain score: […] IEP gel, scale 0 to 5
Method: The percent reduction in complete healing time as compared to a usual episode was evaluated comparing the two patients who received active gel concentrations to the two patients receiving placebo gel. […] Subjects were assigned randomly to one of two active ingredient levels being evaluated, 0.0% and 0.015% by weight of active ingredient.
Each patient was contacted weekly for his or her estimate of the symptomatic relief of 2 common symptoms associated with herpes zoster (shingles) as well as the patient's interpretation of total healing of the episode. In an attempt to quantify responses, patients were asked to rate each symptom on a scale of 0 to 5 with 0 representing no evidence of the symptom and 5 representing the worst or most prominent evidence of the symptom ever for the patient. Subject compliance with the study regimen and the use of other medications was also assessed.

[4] = test system: Varicella zoster (chickenpox) lesions; details: for Mean % Reduction In Healing Time per Lesion: compared to placebo gel; for Itching score / Local pain score: scale 0 to 5; for Mean Time to Lesion Healing: placebo patients 7 days
Method: Treatment consisted of topical application three times a day for a period of five days. […] The mean percent reduction in complete healing time per average pox lesion was evaluated grouping the two patients who received active gel concentrations together and comparing to the two patients receiving placebo gel.
Subjects were assigned randomly to one of three active ingredient levels being evaluated, 0.0%, 0.0067% and G.009% by weight of active ingredient.
Each patient was contacted daily for 5 days for his or her estimate of the symptomatic relief of any symptoms associated with Varicella zoster (chickenpox) as well as the patient's interpretation of total healing of the episode in addition to the patient's description of the lesions present. In an attempt to quantify responses, patients were asked to rate each symptom each day on a scale of 0 to 5 with 0 representing no evidence of the symptom and 5 representing to worst or most prominent evidence of the symptom ever for the patient. Subject compliance with the study regimen and the use of other medications was also assessed.
Lesions were monitored for the usual progression of the typical stages seen with Varicella zoster. Typical chickenpox begins as crops of small, red papules that almost immediately develop into clear, “tear drop” vesicles on an erythematous base which are usually not umbilicated. The lesions initially contain clear fluid, but within 24 hours the contents become cloudy. once this occurs, the vesicles are easily broken and become scabbed. Successive crops of lesions appear for 3 to 4 days.

[5] = 0.0067% ophth soln, 48 hrs, per patient
[6] = 0.0067% ophth soln, 120 hrs, per patient
[7] = 0.0067% ophth soln, scale 0 to 5, per patient

Structure (SMILES): NCCc1c[nH]cn1 [IEP, 1H-imidazole-4-ethanamine,phosphate]
- Difference in lesion decay rates vs placebo gel ([1]; p<0.05): statistically significant
- Standardized Decay Rate/24 hrs ([1]; per patient): 56.55 and 36.36
- Mean percentage decay rate of lesions, Conc. Mean ([2]; 0.0067% gel, 3 patients): 74.1%
- Mean percentage decay rates of lesions for each patient ([2]; 0.0067% gel): 100.0% and 53.8% and 68.4%
- Mean percentage decay rate of lesions, Conc. Mean ([2]; 0.0275% gel, 2 patients): 83.5%
- Mean percentage decay rates of lesions for each patient ([2]; 0.0275% gel): 104.0% and 62.9%
- Reducing lesion size over time vs placebo (analysis of variance) ([2]; Groups C and E (0.0067%, 0.0275%) combined, p<.O1): significantly more effective
- Untoward events or significant complications ([2]; in vivo): No untoward events or significant complications
- Edema, Percent Reduction from Pre-Treatment Value (Allergic Conjunctivitis; [5]): 66.67% and 50.0% and 100.0%
- Itching, Percent Reduction from Pre-Treatment Value (Allergic Conjunctivitis; [5]): 100.0% (2×) and 50.0%
- Level of Discomfort, Percent Reduction from Pre-Treatment Value (Allergic Conjunctivitis; [5]): 66.67% and 75.0% and 100.0%
- Redness, Percent Reduction from Pre-Treatment Value (Allergic Conjunctivitis; [5]): 66.67% (2×) and 75.0%
- Tearing, Percent Reduction from Pre-Treatment Value (Allergic Conjunctivitis; [5]): 100.0% and 50.0%
- Edema, Percent Reduction from Pre-Treatment Value (Allergic Conjunctivitis; [6]): 100.0%
- Itching, Percent Reduction from Pre-Treatment Value (Allergic Conjunctivitis; [6]): 100.0%
- Level of Discomfort, Percent Reduction from Pre-Treatment Value (Allergic Conjunctivitis; [6]): 66.7% and 100.0% (2×)
- Redness, Percent Reduction from Pre-Treatment Value (Allergic Conjunctivitis; [6]): 100.0% and 75.0% and 66.67%
- Tearing, Percent Reduction from Pre-Treatment Value (Allergic Conjunctivitis; [6]): 100.0% (2×) and 75.0%
- Conjunctival Injection or Redness, Value at 48 Hours (Allergic Conjunctivitis; [7]): 1 (2×) and 3
- Edema, Value at 120 Hours (Allergic Conjunctivitis; [7]): 0
- Itching, Value at 120 Hours (Allergic Conjunctivitis; [7]): 0
- Difference in percent reduction of tissue damage parameters and symptoms vs placebo ophthalmic solution (Allergic Conjunctivitis; 0.0067% ophthalmic solution): either significant (p<0.05) or highly significant (p<.O1)
- Untoward effects (Allergic Conjunctivitis; in vivo): no untoward effects
- Burning score ([3]; week 2): 3
- Local pain score ([3]; week 2): 2
- Burning score ([3]; week 3): 0
- Local pain score ([3]; week 3): 0
- Burning score ([3]; week 4): 0
- Local pain score ([3]; week 4): 0
- Burning score ([3]; week 5): 0
- Local pain score ([3]; week 5): 0
- Difference in percent reduction in complete healing time vs placebo ([3]; […] gel, p<0.05): significant
- Untoward reactions ([3]; topical gel […], three times a day): no untoward reactions
- Mean % Reduction In Healing Time per Lesion ([4]; 0.0067% IEP gel): 50.0%
- Itching score ([4]; 0.0067% IEP gel, day 1): 2
- Local pain score ([4]; 0.0067% IEP gel, day 1): 2
- Itching score ([4]; 0.0067% IEP gel, day 2): 0
- Local pain score ([4]; 0.0067% IEP gel, day 2): 1
- Itching score ([4]; 0.0067% IEP gel, day 3): 0
- Local pain score ([4]; 0.0067% IEP gel, day 3): 0
- Itching score ([4]; 0.0067% IEP gel, day 4): 0
- Local pain score ([4]; 0.0067% IEP gel, day 4): 0
- Itching score ([4]; 0.0067% IEP gel, day 5): 0
- Local pain score ([4]; 0.0067% IEP gel, day 5): 0
- Mean Time to Lesion Healing ([4]; 0.0067% gel): 3.5 days
- Mean % Reduction In Healing Time per Lesion ([4]; 0.009% IEP gel): 64.28%
- Itching score ([4]; 0.009% IEP gel, day 1): 2
- Local pain score ([4]; 0.009% IEP gel, day 1): 3
- Itching score ([4]; 0.009% IEP gel, day 2): 0
- Local pain score ([4]; 0.009% IEP gel, day 2): 1
- Itching score ([4]; 0.009% IEP gel, day 3): 0
- Local pain score ([4]; 0.009% IEP gel, day 3): 0
- Itching score ([4]; 0.009% IEP gel, day 4): 0
- Local pain score ([4]; 0.009% IEP gel, day 4): 0
- Itching score ([4]; 0.009% IEP gel, day 5): 0
- Local pain score ([4]; 0.009% IEP gel, day 5): 0
- Mean Time to Lesion Healing ([4]; 0.009% gel): 2.5 days
- Difference in mean percent reduction in complete healing time per lesion vs placebo ([4]; combined 0.0067% and 0.009% groups, p<0.05): significant
- Progression of lesion stages ([4]; lesions treated with 0.0067% and 0.009% gel): did not progress through the usual progression of lesions stages
- Untoward reactions ([4]; topical gel 0.0067%, 0.009%, three times a day for five days): no untoward reactions
